Results published in ChEMBL document CHEMBL4261623, “Synthesis, computational studies and antiproliferative activities of coumarin-tagged 1,3,4-oxadiazole conjugates against MDA-MB-231 and MCF-7 human breast cancer cells” (Bioorg Med Chem, 2018).
pIC50: −log10 of the molar value.

What was measured:
MDA-MB-231 [1] = assay: Antiproliferative activity against human MDA-MB-231 cells after 24 hrs by MTT assay; assay type: functional, cell-based; details: MDA-MB-231, 24 h
MCF7 [2] = assay: Antiproliferative activity against human MCF7 cells after 24 hrs by MTT assay; assay type: functional, cell-based; details: MCF7, 24 h
MCF7 [3] = assay: Potency index, ratio of tamoxifen IC50 to compound IC50 for antiproliferative activity against human MCF7 cells; assay type: functional
MDA-MB-231 [4] = assay: Potency index, ratio of tamoxifen IC50 to compound IC50 for antiproliferative activity against human MDA-MB-231 cells; assay type: functional

| SMILES | pIC50 (MDA-MB-231 [1]) | pIC50 (MCF7 [2]) | Ratio IC50 (MCF7 [3]) | Ratio IC50 (MDA-MB-231 [4]) |
| --- | --- | --- | --- | --- |
| CSc1nnc(COc2cc(C)c3c(C)cc(=O)oc3c2)o1 | < 4.00 | < 4.00 | – | – |
| Cc1cc(OCc2nnc(SCc3ccc(Cl)cc3Cl)o2)cc2oc(=O)cc(C)c12 | < 4.00 | > 5.30 | 1.4 | – |
| CCCCCCS(=O)(=O)c1nnc(COc2cc(C)c3c(C)cc(=O)oc3c2)o1 | < 4.00 | < 4.00 | – | – |
| CCSc1nnc(COc2cc(C)c3c(C)cc(=O)oc3c2)o1 | < 4.00 | < 4.00 | – | – |
| CCCCSc1nnc(COc2cc(C)c3c(C)cc(=O)oc3c2)o1 | < 4.00 | < 4.00 | – | – |
| Cc1cc(OCc2nnc(SCc3ccc(F)c(F)c3)o2)cc2oc(=O)cc(C)c12 | < 4.00 | 4.48 | – | – |
| CCCSc1nnc(COc2cc(C)c3c(C)cc(=O)oc3c2)o1 | < 4.00 | < 4.00 | – | – |
| CCCCCSc1nnc(COc2cc(C)c3c(C)cc(=O)oc3c2)o1 | < 4.00 | < 4.00 | – | – |
| CC/C(=C(\c1ccccc1)c1ccc(OCCN(C)C)cc1)c1ccccc1 [TAMOXIFEN] | 4.33 | 5.15 | – | – |

More lines, main results first:

| pIC50 (MDA-MB-231 [1]) | pIC50 (MCF7 [2]) | SMILES | Ratio IC50 (MCF7 [3]) | Ratio IC50 (MDA-MB-231 [4]) |
| --- | --- | --- | --- | --- |
| < 4.00 | < 4.00 | CCCCCCSc1nnc(COc2cc(C)c3c(C)cc(=O)oc3c2)o1 | – | – |
| 4.50 | 4.26 | Cc1cc(OCc2nnc(S(=O)(=O)Cc3ccc(F)c(F)c3)o2)cc2oc(=O)cc(C)c12 | – | – |
| < 4.00 | 4.58 | Cc1cc(OCc2nnc(SCc3cccc(F)c3)o2)cc2oc(=O)cc(C)c12 | – | – |
| 4.67 | 4.15 | Cc1cc(OCc2nnc(S(=O)(=O)Cc3cccc(F)c3)o2)cc2oc(=O)cc(C)c12 | – | – |
| < 4.00 | < 4.00 | Cc1cc(OCc2nnc(SCc3ccccc3)o2)cc2oc(=O)cc(C)c12 | – | – |
| < 4.00 | < 4.00 | CCS(=O)(=O)c1nnc(COc2cc(C)c3c(C)cc(=O)oc3c2)o1 | – | – |
| 5.15 | < 4.00 | CCCS(=O)(=O)c1nnc(COc2cc(C)c3c(C)cc(=O)oc3c2)o1 | – | 7 |
| 5.15 | 4.41 | Cc1cc(OCc2nnc(S(=O)(=O)Cc3ccccc3)o2)cc2oc(=O)cc(C)c12 | – | 7 |
